Experimental data from patent publication US11498930B2 (BLUERAY THERAPEUTICS (SHANGHAI) CO., LTD., priority 2018, dated 2022).
Like-named read-outs stand apart in the source and are kept apart here.

How the values were obtained:
SHP2^E76A protein = SHP2^E76A protein (Homo sapiens (Human), UniProt Q06124, E76A); experiment: SHP2 enzyme activity inhibition experiment; type: biochemical
Outline: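 Compounds tested at 10 concentrations in 3-fold serial dilution. IC50 from a four-parameter Hill-slope nonlinear fit of enzyme activity versus concentration.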

[1] = system: phosphorylation level of intracellular protein kinase (ERK) in MOLM13 cells; experiment: Phosphorylated protein kinase (p-ERK) cell experiment (AlphaLISA); type: cell-based; settings: Homo sapiens, MOLM-13, MOLM13 cells
MOLM-13 cells = experiment: MOLM-13 cell proliferation experiment; type: cell-based
Method: After 3 days, 5 µL of CellTiter-Glo reagent (Promega, ZG7572) was added to each well, and the plates were kept at room temperature in the dark for 10 minutes. The […] was detected by Spectra max i3 (Molecular Devices). The relative growth rate of the treated cells was compared with that of DMSO control.

[2] = SHP2 enzyme activity, Tables 1.1 and 1.2, read-out: IC50
[3] = Table 4, read-out: SHP2 enzyme activity IC50
[4] = p-ERK, 2 hours of cell treatment, Tables 2.1 and 2.2, read-out: IC50
[5] = Homo sapiens, MOLM-13, 72 h, MOLM-13 cell proliferation, 3 days, Tables 3.1 and 3.2, read-out: IC50
[6] = Homo sapiens, MOLM-13, read-out: MOLM-13 cell proliferation IC50

Chain of SHP2^E76A protein (Q06124 whole entry E76A): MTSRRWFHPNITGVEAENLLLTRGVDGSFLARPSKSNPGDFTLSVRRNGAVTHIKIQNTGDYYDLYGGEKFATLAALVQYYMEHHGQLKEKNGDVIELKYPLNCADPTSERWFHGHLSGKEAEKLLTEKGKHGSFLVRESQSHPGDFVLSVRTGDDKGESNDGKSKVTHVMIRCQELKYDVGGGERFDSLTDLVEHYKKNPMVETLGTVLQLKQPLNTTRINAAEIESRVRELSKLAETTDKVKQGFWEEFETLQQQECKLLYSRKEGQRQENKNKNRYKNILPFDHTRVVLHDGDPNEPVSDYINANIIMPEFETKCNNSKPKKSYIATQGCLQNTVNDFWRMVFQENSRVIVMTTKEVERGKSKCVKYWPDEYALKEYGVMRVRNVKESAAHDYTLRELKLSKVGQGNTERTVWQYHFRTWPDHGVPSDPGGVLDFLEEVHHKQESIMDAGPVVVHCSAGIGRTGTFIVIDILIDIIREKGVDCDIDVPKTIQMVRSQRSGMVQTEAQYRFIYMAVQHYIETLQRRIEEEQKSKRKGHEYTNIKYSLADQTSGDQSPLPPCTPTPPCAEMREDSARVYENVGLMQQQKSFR

| Structure (SMILES) | IC50 (SHP2^E76A protein; [2]) | IC50 (SHP2^E76A protein; [3]) | IC50 ([1]; Table 4, read-out: p-ERK IC50) | IC50 [1, 4] | IC50 (MOLM-13 cells; [5]) | IC50 (MOLM-13 cells; [6]) | IC50 (MOLM-13 cells; MOLM-13 cell proliferation, 3 days, Tables 3.1 and 3.2, read-out: IC50) |
| --- | --- | --- | --- | --- | --- | --- | --- |
| Nc1cc(Sc2cnc(N3CCC4(CCC[C@H]4N)CC3)n3ccnc23)c(Cl)c(Cl)n1 [(R)-8-(8-((6-amino-2,3-dichloropyridin-4-yl)thio)imidazo[1,2-c]pyrimidin-5-yl)-8-azaspiro[4.5]decan-1-amine] | < 100 nM | 12 nM | 9 nM | < 100 nM | < 100 nM | 16 nM |  |
| Cc1nc(N)cc(Sc2cnc(N3CCC4(CC3)CC(F)(F)C[C@H]4N)n3ccnc23)c1Cl [(R)-8-(8-((6-amino-3-chloro-2-methyl-pyridin-4-yl)thio)imidazo[1,2-c]pyrimidin-5-yl)-3,3-difluoro-8-azaspiro[4.5]decan-1-amine] | < 100 nM | 26 nM | 97 nM | < 100 nM |  | 150 nM |  |
| Cc1nc(N)cc(Sc2cnc(N3CCC4(CCC[C@H]4N)CC3)n3ccnc23)c1Cl [(R)-8-(8-((6-amino-3-chloro-2-methyl-pyridin-4-yl)thio)imidazo[1,2-c]pyrimidin-5-yl)-8-azaspiro[4.5]decan-1-amine] |  | 17 nM | 37 nM | < 100 nM |  | 210 nM |  |
| N[C@@H]1CCCC12CCN(c1ncc(Sc3cccc4ccccc34)c3nccn13)CC2 [(R)-8-(8-(naphthalen-1-ylthio)imidazo[1,2-c]pyrimidin-5-yl)-8-azaspiro[4.5]decan-1-amine] | < 100 nM | 28 nM | 490 nM | 100 to 1000 nM | 100 to 1000 nM | 150 nM |  |
| N[C@@H]1CCCC12CCN(c1ncc(Sc3ccnc4ccccc34)c3nccn13)CC2 [(R)-8-(8-(quinolin-4-ylthio)imidazo[1,2-c]pyrimidin-5-yl)-8-azaspiro[4.5]decan-1-amine] | < 100 nM | 20 nM | 31 nM | 100 to 1000 nM | < 100 nM | 99 nM |  |
| C=CC(=O)Nc1cccc(Sc2cnc(N3CCC4(CCC[C@H]4N)CC3)n3cnnc23)c1Cl [(R)-N-(3-((5-(1-amino-8-azaspiro[4.5]decan-8-yl)-[1,2,4]triazolo[4,3-c]pyrimidin-8-yl)thio)-2-chlorophenyl)acrylamide] | 100 to 1000 nM |  |  | 1000 to 10000 nM | 100 to 1000 nM |  |  |
| C=CC(=O)Nc1cccc(Sc2cnc(N3CCC4(CCC[C@H]4N)CC3)n3ccnc23)c1Cl [(R)-N-(3-((5-(1-amino-8-azaspiro[4.5]decan-8-yl)imidazo[1,2-c]pyrimidin-8-yl)thio)-2-chlorophenyl)acrylamide] | 100 to 1000 nM |  |  | 100 to 1000 nM | 100 to 1000 nM |  |  |
| N[C@@H]1COCC12CCN(c1ncc(Sc3cccc(Cl)c3Cl)c3ncnn13)CC2 [(S)-8-(8-((2,3-dichlorophenyl)thio)-[1,2,4]triazolo[1,5-c]pyrimidin-5-yl)-2-oxa-8-azaspiro[4.5]decan-4-amine] | 100 to 1000 nM |  |  | 1000 to 10000 nM | 100 to 1000 nM |  |  |
| N[C@@H]1COCC12CCN(c1ncc(Sc3cccc(Cl)c3Cl)c3nncn13)CC2 [(S)-8-(8-((2,3-dichlorophenyl)thio)-[1,2,4]triazolo[4,3-c]pyrimidin-5-yl)-2-oxa-8-azaspiro[4.5]decan-4-amine] | < 100 nM | 20 nM | 168 nM | 100 to 1000 nM | 100 to 1000 nM | 892 nM |  |
| N[C@@H]1COCC12CCN(c1ncc(Sc3ccnc(Cl)c3Cl)c3nccn13)CC2 [(S)-8-(8-((2,3-dichloropyridin-4-yl)thio)imidazo[1,2-c]pyrimidin-5-yl)-2-oxa-8-azaspiro[4.5]decan-4-amine] | < 100 nM |  |  | 100 to 1000 nM | 100 to 1000 nM |  |  |
| Nc1nccc(Sc2cnc(N3CCC4(CC3)COC[C@H]4N)n3cnnc23)c1Cl [(S)-8-(8-((2-amino-3-chloropyridin-4-yl)thio)-[1,2,4]triazolo[4,3-c]pyrimidin-5-yl)-2-oxa-8-azaspiro[4.5]decan-4-amine] | 100 to 1000 nM |  |  | 100 to 1000 nM | 1000 to 10000 nM |  |  |
| Nc1nccc(Sc2cnc(N3CCC4(CC3)COC[C@H]4N)n3ccnc23)c1Cl [(S)-8-(8-((2-amino-3-chloropyridin-4-yl)thio)imidazo[1,2-c]pyrimidin-5-yl)-2-oxa-8-azaspiro[4.5]decan-4-amine] | < 100 nM |  |  | 100 to 1000 nM | 100 to 1000 nM |  |  |
| Nc1cc(Sc2cnc(N3CCC4(CC3)COC[C@H]4N)n3ccnc23)c(Cl)c(Cl)n1 [(S)-8-(8-((6-amino-2,3-dichloropyridin-4-yl)thio)imidazo[1,2-c]pyrimidin-5-yl)-2-oxa-8-azaspiro[4.5]decan-4-amine] | < 100 nM | 9 nM | 28 nM | < 100 nM | < 100 nM | 54 nM |  |
| Cc1nc(N)cc(Sc2cnc(N3CCC4(CC3)COC[C@H]4N)n3ccnc23)c1Cl [(S)-8-(8-((6-amino-3-chloro-2-methyl-pyridin-4-yl)thio)imidazo[1,2-c]pyrimidin-5-yl)-2-oxa-8-azaspiro[4.5]decan-4-amine] | < 100 nM | 34 nM | 160 nM | 100 to 1000 nM | 100 to 1000 nM | 340 nM | < 100 nM |
